Results as given in PMC9137037 (Frontiers in Oncology, 2022).
Where two headings read alike, the source gives them in different places. Where no end group is shown, it is not given here.

Experiment: Toxicokinetics of APi2568 in monkey plasma (UHPLC-MS/MS)
Format: in vivo, cynomolgus monkey
Details: for Cmax: UHPLC-MS/MS; for accumulation ratio (RA): TK profiles on days 1 and 43
Method: The non-human primate studies were carried out by the Charles River Laboratories (Ashland, OH USA). All the cynomolgus monkeys (Macaca fascicularis of Chinese origin) were obtained from Charles River Laboratories (Houston, TX, USA). In brief, the animals were approximately 2–4 years old and at the body weight between 2.2 and 3.1 kg at the initial dosing. The animals were kept at the temperature between 19°C and 24°C, humidity 30%–70%, and with 12 h light and 12 h dark light cycle. The Good manufacturing practice (GMP)-manufactured vaccine was used in the non-human primate study. […] Similar to mouse and dog dosing preparation, after the emulsion was prepared, a drop test was performed on each time of dosing to confirm that the emulsion had been prepared properly. […] The dose volume was split approximately equally across two different sites; 0.5 ml of the dose was intramuscularly (IM) injected into the right posterior lateral thigh, the left dosing was injected into the left site. All the animals’ body weights were monitored weekly after receiving. After each immunization, the animal body temperature was tested 6 and 24 h post each immunization. […] The animal bleed were collected before each time of immunization to monitor the antibody titers. There were two sets of non-human primate studies conducted. The first set of monkey study No.00213515 had 24 monkeys, 12 males, and 12 females divided into 4 groups: vehicle control, low dose 0.5 mg, medium dose 2 mg, and high dose 5 mg. There were 16 monkeys (8 males and 8 females) in the second set of monkey study No. 00213519. The monkeys in the four groups were vaccinated as follows: vehicle control, low dose 25 μg, medium dose 100 μg, and high dose 250 μg.
For the determination of TK parameters, blood samples were collected at various times after dosing analyzed using a validated UHPLC-MS/MS (ultra-high-performance liquid chromatography with tandem mass spectrometry) method, for the quantification of APi2568 in monkey plasma.

[1] = female, 2 mg/dose IM as PD1-Vaxx, day 43, mean
[2] = female, 5 mg/dose IM as PD1-Vaxx, day 1
[3] = female, 5 mg/dose IM as PD1-Vaxx, day 43, mean
[4] = male, 0.5 mg/dose IM as PD1-Vaxx, day 43, mean
[5] = male, 2 mg/dose IM as PD1-Vaxx, day 43, mean
[6] = male, 5 mg/dose IM as PD1-Vaxx, day 1
[7] = male, 5 mg/dose IM as PD1-Vaxx, day 43, mean

KLLSLIKGVIVHRLEGVEGPSLGAISLAPKAQIKESLRAEL [MVF-PD-1(92-110)]
plasma concentrations relative to the LLOQ (day 43, 0.5 mg/dose group (both sexes) and 2 mg/dose female monkeys): ≤ 6 fold
T1/2 mean value (day 43, 2 and 5 mg/dose male monkeys and a single 5 mg/dose female monkey): approximately 13 h
Cmax/D (female, 0.5 mg/dose IM as PD1-Vaxx, day 43, mean): 17.6 (ng/ml)/(mg/dose)
AUC(0-t)/D [1]: 47.3 (ngh/ml)/(mg/dose)
Cmax/D [1]: 6.92 (ng/ml)/(mg/dose)
Tlast [1]: 8 h
AUC(0-t)/D [2]: 3.79 (ngh/ml)/(mg/dose)
Cmax/D [2]: 0.954 (ng/ml)/(mg/dose)
Tlast [2]: 4 h
AUC(0-t) (female, 5 mg/dose IM as PD1-Vaxx, day 1, AUC calculable in 1 monkey/sex): 18.9 ng·h/mL
T1/2 (female, 5 mg/dose IM as PD1-Vaxx, day 43, calculable for a single female monkey): 19.6 h
AUC(0-t)/D [3]: 266 (ngh/ml)/(mg/dose)
Cmax/D [3]: 31.9 (ng/ml)/(mg/dose)
Tlast [3]: 34 h
Tmax [3]: 1 h
Cmax (female, cynomolgus monkey, plasma, im, 0.5 mg/dose, female, 0.5 mg/dose IM as PD1-Vaxx, day 43, plasma, mean (generally n = 3)): 8.81 ng/mL
Tmax (female, cynomolgus monkey, plasma, im, 0.5 mg/dose, read-out: Tmax): 2 h
AUC(0-t) (female, cynomolgus monkey, plasma, im, 2 mg/dose, female, 2 mg/dose IM as PD1-Vaxx, day 43, mean, one female had significantly lower exposure, read-out: AUC(0-t)): 94.5 ng·h/mL
Cmax (female, cynomolgus monkey, plasma, im, 2 mg/dose, female, 2 mg/dose IM as PD1-Vaxx, day 43, plasma, mean (generally n = 3)): 13.8 ng/mL
Tmax (female, cynomolgus monkey, plasma, im, 2 mg/dose, read-out: Tmax): 4 h
Cmax (female, cynomolgus monkey, plasma, im, 5 mg/dose, female, 5 mg/dose IM as PD1-Vaxx, day 1, plasma, mean as printed): 4.77 ng/mL
AUC(0-t) (female, cynomolgus monkey, plasma, im, 5 mg/dose, female, 5 mg/dose IM as PD1-Vaxx, day 43, mean, read-out: AUC(0-t)): 1330 ng·h/mL
Cmax (female, cynomolgus monkey, plasma, im, 5 mg/dose, female, 5 mg/dose IM as PD1-Vaxx, day 43, plasma, mean (generally n = 3)): 160 ng/mL
Tmax (female, cynomolgus monkey, plasma, im, 5 mg/dose, read-out: Tmax): 1 h
AUC(0-t)/D [4]: 125 (ngh/ml)/(mg/dose)
Tlast [4]: 8 h
AUC(0-t)/D [5]: 247 (ngh/ml)/(mg/dose)
Tlast [5]: 24 h
AUC(0-t)/D [6]: 30.1 (ngh/ml)/(mg/dose)
Cmax/D [6]: 2.01 (ng/ml)/(mg/dose)
Tlast [6]: 24 h
AUC(0-t)/D [7]: 693 (ngh/ml)/(mg/dose)
Cmax/D [7]: 40.5 (ng/ml)/(mg/dose)
Tlast [7]: 48 h
Tmax [7]: 1 h
AUC(0-t) (male, cynomolgus monkey, plasma, im, 0.5 mg/dose, male, 0.5 mg/dose IM as PD1-Vaxx, day 43, mean, read-out: AUC(0-t)): 62.3 ng·h/mL
Tmax (male, cynomolgus monkey, plasma, im, 0.5 mg/dose, read-out: Tmax): 1 h
half-life (male, cynomolgus monkey, plasma, im, 2 mg/dose): 786 min
AUC(0-t) (male, cynomolgus monkey, plasma, im, 2 mg/dose, male, 2 mg/dose IM as PD1-Vaxx, day 43, mean, read-out: AUC(0-t)): 494 ng·h/mL
Tmax (male, cynomolgus monkey, plasma, im, 2 mg/dose, read-out: Tmax): 1 h
half-life (male, cynomolgus monkey, plasma, im, 5 mg/dose): 762 min
AUC(0-t) (male, cynomolgus monkey, plasma, im, 5 mg/dose, male, 5 mg/dose IM as PD1-Vaxx, day 1, AUC calculable in 1 monkey/sex, read-out: AUC(0-t)): 151 ng·h/mL
Cmax (male, cynomolgus monkey, plasma, im, 5 mg/dose, male, 5 mg/dose IM as PD1-Vaxx, day 1, plasma, mean as printed): 10.1 ng/mL
AUC(0-t) (male, cynomolgus monkey, plasma, im, 5 mg/dose, male, 5 mg/dose IM as PD1-Vaxx, day 43, mean, read-out: AUC(0-t)): 3460 ng·h/mL
Cmax (male, cynomolgus monkey, plasma, im, 5 mg/dose, male, 5 mg/dose IM as PD1-Vaxx, day 43, plasma, mean (generally n = 3)): 202 ng/mL
Tmax (male, cynomolgus monkey, plasma, im, 5 mg/dose, read-out: Tmax): 2 h
accumulation ratio (RA) (single female monkey, 5 mg/dose): 121
accumulation ratio (RA) (single male monkey, 5 mg/dose): 16.3
